From ChEMBL document CHEMBL5360532, “Current scenario of quinolone hybrids with potential antibacterial activity against ESKAPE pathogens” (Eur J Med Chem, 2023)
Values after ≈ are worked out from the molar mass of the structure shown.

Tests used:
Format in all cases: functional
[1] = tested on: Mycobacterium tuberculosis; experiment: Antimycobacterial activity against multidrug resistant Mycobacterium tuberculosis assessed as bacterial growth inhibition by agar cup diffusion assay
[2] = tested on: Mycobacterium tuberculosis; experiment: Antimycobacterial activity against extensive drug resistant Mycobacterium tuberculosis assessed as bacterial growth inhibition by agar cup diffusion assay
[3] = tested on: Mycobacterium tuberculosis; experiment: Potency index, ratio of ciprofloxacin MIC to test compound MIC for antimycobacterial activity against extensive drug resistant Mycobacterium tuberculosis assessed as bacterial growth inhibition by LJ slant assay
[4] = tested on: Mycobacterium tuberculosis; experiment: Potency index, ratio of ciprofloxacin MIC to test compound MIC for antimycobacterial activity against multidrug resistant Mycobacterium tuberculosis assessed as bacterial growth inhibition by LJ slant assay

C=CCn1c(SCC(=O)N2CCN(c3cc4c(cc3F)c(=O)c(C(=O)O)cn4C3CC3)CC2)nnc1-c1ccccc1 was tested, and the MIC [1] was 4 µg/mL (≈ 6.8 µM) and the MIC [2] was 4 µg/mL (≈ 6.8 µM).

O=c1c(-c2nnc(S)o2)cn(C2CC2)c2cc(N3CCNCC3)c(F)cc12 was tested, and the Ratio [3] was “>=32” and the Ratio [4] was “>=32”.

O=C(CN1CCN(c2cc3c(cc2F)c(=O)c(C(=O)O)cn3C2CC2)CC1)Nc1nnc(-c2ccccc2)s1 showed an MIC [1] of 8 µg/mL (≈ 14.6 µM) and an MIC [2] of 8 µg/mL (≈ 14.6 µM).
